Earlier results on seven molecules are cited in patent US9677045B2, “Microorganisms and methods for production of 4-hydroxybutyrate, 1,4-butanediol and related compounds” (priority 2012, dated 2017).

Data set [1] relates to alcohol dehydrogenase from Brevibacterium sp KU 1309. Particulars: reduction of carbonyl compounds; cited from earlier work.
For data set [2], the target named is T1, L(+)-lactate dehydrogenase from A. eutrophus (R. eutropha ldhA) (Cupriavidus necator, UniProt Q07251).
T1 sequence (Q07251 1-349): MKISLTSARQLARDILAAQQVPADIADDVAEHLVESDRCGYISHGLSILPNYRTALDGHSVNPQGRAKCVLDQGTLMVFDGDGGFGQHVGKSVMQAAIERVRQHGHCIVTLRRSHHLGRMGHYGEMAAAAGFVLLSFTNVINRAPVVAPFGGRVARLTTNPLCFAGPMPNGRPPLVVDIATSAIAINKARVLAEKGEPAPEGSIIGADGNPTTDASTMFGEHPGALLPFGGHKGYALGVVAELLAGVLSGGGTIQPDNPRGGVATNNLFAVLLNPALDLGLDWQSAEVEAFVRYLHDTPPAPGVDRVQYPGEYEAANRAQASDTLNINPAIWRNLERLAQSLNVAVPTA
Conditions: compared with that on pyruvate; cited from earlier work.

The conditions of data set [3]: cytoplasmic pH, typically 7.4; cited from earlier work.
In data set [4] the test system is cytochrome oxidases from E. coli. Conditions: from Bekker et al., 2009; cited from earlier work.

Marks after values point to notes of the source that are not given here.

Regarding `CC(C=O)c1ccccc1` (stereo not shown) [2-Phenylpropionaldehyde], the Km in data set [1] was 864 µM.
Consider `CCC(C)C(=O)C(=O)O` (stereo not shown) [3-Methyl-2-oxovalerate], for which, in data set [2], the “Activity (%) of L(+)-lactate dehydrogenase from A. eutrophus” value (“Activity (%)” below) is 5.3%.
For the molecule `CC(C)CC(=O)C(=O)O` [4-Methyl-2-oxopentanoate], the “Activity (%)” value in data set [2] was 39.0%.
In the case of `O=C1CCCO1` [GBL, γ-butyrolactone], in data set [3], the lactone/hydroxyacid equilibrium result is reported as “hydrolysis of the GBL lactone is favored”.
As for `O=CC(=O)O` [Glyoxylate], the “Activity (%)” value in data set [2] is reported as 8.7%.
`O=CCc1ccccc1` [Phenylacetaldehyde]: in data set [1], the Km was 261 µM.

B1: Cytochrome bo (protein, UniProt P0ABJ1 25-315; P0ABI8 1-663; P0ABJ3 1-204; P0ABJ6 1-109, looked up)
Cytochrome bo(3) ubiquinol … 1: CNSALLDPKGQIGLEQRSLILTAFGLMLIVVIPAILMAVGFAWKYRASNKDAKYSPNWSHSNKVEAVVWTVPILIIIFLAVLTWKTTHALEPSKPLAHDEKPITIEVVSMDWKWFFIYPEQGIATVNEIAFPANTPVYFKVTSNSVMNSFFIPRLGSQIYAMAGMQTRLHLIANEPGTYDGISASYSGPGFSGMKFKAIATPDRAAFDQWVAKAKQSPNTMSDMAAFEKLAAPSEYNQVEYFSNVKPDLFADVINKFMAHGKSMDMTQPEGEHSAHEGMEGMDMSHAESAH
Cytochrome bo(3) ubiquinol … 2: MFGKLSLDAVPFHEPIVMVTIAGIILGGLALVGLITYFGKWTYLWKEWLTSVDHKRLGIMYIIVAIVMLLRGFADAIMMRSQQALASAGEAGFLPPHHYDQIFTAHGVIMIFFVAMPFVIGLMNLVVPLQIGARDVAFPFLNNLSFWFTVVGVILVNVSLGVGEFAQTGWLAYPPLSGIEYSPGVGVDYWIWSLQLSGIGTTLTGINFFVTILKMRAPGMTMFKMPVFTWASLCANVLIIASFPILTVTVALLTLDRYLGTHFFTNDMGGNMMMYINLIWAWGHPEVYILILPVFGVFSEIAATFSRKRLFGYTSLVWATVCITVLSFIVWLHHFFTMGAGANVNAFFGITTMIIAIPTGVKIFNWLFTMYQGRIVFHSAMLWTIGFIVTFSVGGMTGVLLAVPGADFVLHNSLFLIAHFHNVIIGGVVFGCFAGMTYWWPKAFGFKLNETWGKRAFWFWIIGFFVAFMPLYALGFMGMTRRLSQQIDPQFHTMLMIAASGAVLIALGILCLVIQMYVSIRDRDQNRDLTGDPWGGRTLEWATSSPPPFYNFAVVPHVHERDAFWEMKEKGEAYKKPDHYEEIHMPKNSGAGIVIAAFSTIFGFAMIWHIWWLAIVGFAGMIITWIVKSFDEDVDYYVPVAEIEKLENQHFDEITKAGLKNGN
Cytochrome bo(3) ubiquinol … 3: MATDTLTHATAHAHEHGHHDAGGTKIFGFWIYLMSDCILFSILFATYAVLVNGTAGGPTGKDIFELPFVLVETFLLLFSSITYGMAAIAMYKNNKSQVISWLALTWLFGAGFIGMEIYEFHHLIVNGMGPDRSGFLSAFFALVGTHGLHVTSGLIWMAVLMVQIARRGLTSTNRTRIMCLSLFWHFLDVVWICVFTVVYLMGAM
Cytochrome bo(3) ubiquinol … 4: MSHSTDHSGASHGSVKTYMTGFILSIILTVIPFWMVMTGAASPAVILGTILAMAVVQVLVHLVCFLHMNTKSDEGWNMTAFVFTVLIIAILVVGSIWIMWNLNYNMMMH
As for B1, in data set [4], the Vmax was 225^c mol O/mol cytochrome bd/s.

The Km is the substrate concentration at which the rate is half of its maximum.
